{"source": "patent US20250313548A1", "about": "(Actio Biosciences, Inc., priority 2023, published 2025)", "biological_target": "human, KCNT1 (Homo sapiens (Human), UniProt Q5JUK3)", "sequence (Q5JUK3 whole entry)": "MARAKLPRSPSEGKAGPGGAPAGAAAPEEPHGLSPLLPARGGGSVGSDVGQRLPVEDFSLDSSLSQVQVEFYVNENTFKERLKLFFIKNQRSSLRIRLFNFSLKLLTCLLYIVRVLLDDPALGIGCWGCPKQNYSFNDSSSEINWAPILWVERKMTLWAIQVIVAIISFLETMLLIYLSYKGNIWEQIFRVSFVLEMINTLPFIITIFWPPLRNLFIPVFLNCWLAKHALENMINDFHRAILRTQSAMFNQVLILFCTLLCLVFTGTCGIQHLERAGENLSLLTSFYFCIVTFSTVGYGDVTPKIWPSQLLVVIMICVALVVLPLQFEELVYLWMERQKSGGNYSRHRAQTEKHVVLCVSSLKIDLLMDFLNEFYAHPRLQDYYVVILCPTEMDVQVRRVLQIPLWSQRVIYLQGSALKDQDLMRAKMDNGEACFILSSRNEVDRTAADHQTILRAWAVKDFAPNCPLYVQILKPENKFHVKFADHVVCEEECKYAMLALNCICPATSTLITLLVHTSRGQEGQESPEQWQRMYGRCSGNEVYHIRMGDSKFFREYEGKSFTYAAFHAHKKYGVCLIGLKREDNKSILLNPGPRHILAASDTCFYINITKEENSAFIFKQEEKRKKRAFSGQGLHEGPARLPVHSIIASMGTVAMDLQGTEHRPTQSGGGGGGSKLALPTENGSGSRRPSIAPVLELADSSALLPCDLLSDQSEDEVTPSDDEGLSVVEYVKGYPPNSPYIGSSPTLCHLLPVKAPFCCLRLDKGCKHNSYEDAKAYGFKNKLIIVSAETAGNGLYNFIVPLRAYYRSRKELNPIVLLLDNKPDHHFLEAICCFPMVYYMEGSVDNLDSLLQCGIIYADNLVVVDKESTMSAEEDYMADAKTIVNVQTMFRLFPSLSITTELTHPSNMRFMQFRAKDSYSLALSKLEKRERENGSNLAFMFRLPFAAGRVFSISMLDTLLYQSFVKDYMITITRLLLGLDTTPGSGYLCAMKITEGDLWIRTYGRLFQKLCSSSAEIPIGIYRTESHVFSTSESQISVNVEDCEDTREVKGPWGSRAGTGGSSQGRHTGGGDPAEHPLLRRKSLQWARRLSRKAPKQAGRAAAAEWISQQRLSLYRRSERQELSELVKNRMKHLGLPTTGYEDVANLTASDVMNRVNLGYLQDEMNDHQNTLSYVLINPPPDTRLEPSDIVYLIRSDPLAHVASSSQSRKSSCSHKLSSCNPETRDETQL", "experiment": "FLIPR Tl/K Flux Assay", "type": "cell-based", "conditions": "HEK293 cells stably expressing human KCNT1; Tl+ flux stimulated with EC80 of agonist Loxapine", "summary_of_the_method": "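Inhibition values come from a Hill-equation fit of % inhibition versus log concentration, using normalized fluorescence (Fmax/Fmin) over a 160 s read. The read followed stimulation with Tl+ plus EC80 agonist loxapine after 30 min compound pre-incubation at 25 °C. Cells were KCNT1-expressing HEK293, dye-loaded 1 h in pH 7.4 HEPES/HBSS with 5 mM probenecid.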"}
{"molecule": "Cc1nn(C(F)(F)F)cc1C(=O)N[C@H]1CCn2nc(-c3ccnc(C(F)(F)F)c3)cc21", "note": "[Compound I-556a]", "values": [{"measurement": "IC50", "value": "< 250", "unit": "nM"}]}
{"molecule": "Cc1nn(C(F)(F)F)cc1C(=O)N[C@H]1CCCc2oc(-c3ccnc(C(F)(F)F)c3)nc21", "note": "[Compound I-557a, (S)-3-Methyl-1-(trifluoromethyl)-N-(2-(2-(trifluoromethyl)pyridin-4-yl)-4,5,6,7-tetrahydrobenzo[d]oxazol-4-yl)-1H-pyrazole-4-carboxamide]", "values": [{"measurement": "IC50", "value": "< 250", "unit": "nM"}]}
{"molecule": "O=C(N[C@H]1CCn2nc(-c3cc(C(F)(F)F)ncc3F)cc21)C12CC(CC(F)F)(C1)C2", "note": "[Compound I-558a, (S)-3-(2,2-Difluoroethyl)-N-(2-(5-fluoro-2-(trifluoromethyl)pyridin-4-yl)-5,6-dihydro-4H-pyrrolo[1,2-b]pyrazol-4-yl)bicyclo[1.1.1]pentane-1-carboxamide]", "values": [{"measurement": "IC50", "value": "< 250", "unit": "nM"}]}
{"molecule": "O=C(N[C@H]1CCn2nc(-c3cc(C4CC4)ncc3F)cc21)C12CC(C(F)(F)F)(C1)C2", "note": "[Compound I-559a, (S)-N-(2-(2-Cyclopropyl-5-fluoropyridin-4-yl)-5,6-dihydro-4H-pyrrolo[1,2-b]pyrazol-4-yl)-3-(trifluoromethyl)bicyclo[1.1.1]pentane-1-carboxamide]", "values": [{"measurement": "IC50", "value": "< 250", "unit": "nM"}]}
{"molecule": "COc1cc(C(=O)N[C@H]2CCn3nc(-c4cc(OC)ncc4F)cc32)ccn1", "note": "[Compound I-560a, (S)-N-(2-(5-Fluoro-2-methoxypyridin-4-yl)-5,6-dihydro-4H-pyrrolo[1,2-b]pyrazol-4-yl)-2-methoxyisonicotinamide]", "values": [{"measurement": "IC50", "value": "< 250", "unit": "nM"}]}
{"molecule": "COc1cc(F)cc(C(=O)N[C@H]2CCc3nn(-c4ccnc(C(F)(F)F)c4)cc32)c1", "note": "[Compound I-561a, (S)-3-Fluoro-5-methoxy-N-(2-(2-(trifluoromethyl)pyridin-4-yl)-2,4,5,6-tetrahydrocyclopenta[c]pyrazol-4-yl)benzamide]", "values": [{"measurement": "IC50", "value": "< 250", "unit": "nM"}]}
{"molecule": "O=C(N[C@H]1CCc2nn(-c3ccnc(C(F)(F)F)c3)cc21)c1cc(F)cc(C2CC2)c1", "note": "[Compound I-562a, (S)-3-Cyclopropyl-5-fluoro-N-(2-(2-(trifluoromethyl)pyridin-4-yl)-2,4,5,6-tetrahydrocyclopenta[c]pyrazol-4-yl)benzamide]", "values": [{"measurement": "IC50", "value": "< 250", "unit": "nM"}]}
{"molecule": "CC(C)(O)c1cc(F)cc(C(=O)N[C@H]2CCc3nn(-c4ccnc(C(F)(F)F)c4)cc32)c1", "note": "[Compound I-563a, (S)-3-Fluoro-5-(2-hydroxypropan-2-yl)-N-(2-(2-(trifluoromethyl)pyridin-4-yl)-2,4,5,6-tetrahydrocyclopenta[c]pyrazol-4-yl)benzamide]", "values": [{"measurement": "IC50", "value": "< 250", "unit": "nM"}]}
{"molecule": "O=C(N[C@H]1CCc2nn(-c3ccnc(C(F)(F)F)c3)cc21)c1cnc(C(F)(F)F)cn1", "note": "[Compound I-564a, (S)-5-(Trifluoromethyl)-N-(2-(2-(trifluoromethyl)pyridin-4-yl)-2,4,5,6-tetrahydrocyclopenta[c]pyrazol-4-yl)pyrazine-2-carboxamide]", "values": [{"measurement": "IC50", "value": "< 250", "unit": "nM"}]}
{"molecule": "O=C(N[C@H]1CCc2nn(-c3ccnc(C(F)(F)F)c3)cc21)c1cncc(C(F)(F)F)n1", "note": "[Compound I-565a, (S)-6-(Trifluoromethyl)-N-(2-(2-(trifluoromethyl)pyridin-4-yl)-2,4,5,6-tetrahydrocyclopenta[c]pyrazol-4-yl)pyrazine-2-carboxamide]", "values": [{"measurement": "IC50", "value": "< 250", "unit": "nM"}]}
{"molecule": "O=C(N[C@H]1CCc2nn(-c3ccnc(C(F)(F)F)c3)cc21)c1cnn(C(F)(F)F)c1", "note": "[Compound I-566a, (S)-1-(Trifluoromethyl)-N-(2-(2-(trifluoromethyl)pyridin-4-yl)-2,4,5,6-tetrahydrocyclopenta[c]pyrazol-4-yl)-1H-pyrazole-4-carboxamide]", "values": [{"measurement": "IC50", "value": "< 250", "unit": "nM"}]}
{"molecule": "COc1cc(F)cc(C(=O)N[C@H]2CCn3nc(-c4ccnc(C(F)(F)F)c4)cc32)c1", "note": "[Compound I-567a, (S)-3-Fluoro-5-methoxy-N-(2-(2-(trifluoromethyl)pyridin-4-yl)-5,6-dihydro-4H-pyrrolo[1,2-b]pyrazol-4-yl)benzamide]", "values": [{"measurement": "IC50", "value": "< 250", "unit": "nM"}]}
{"molecule": "CCOc1cc(F)cc(C(=O)N[C@H]2CCn3nc(-c4ccnc(C(F)(F)F)c4)cc32)c1", "note": "[Compound I-568a, (S)-3-Ethoxy-5-fluoro-N-(2-(2-(trifluoromethyl)pyridin-4-yl)-5,6-dihydro-4H-pyrrolo[1,2-b]pyrazol-4-yl)benzamide]", "values": [{"measurement": "IC50", "value": "< 250", "unit": "nM"}]}
{"molecule": "O=C(N[C@H]1CCn2nc(-c3ccnc(C(F)(F)F)c3)cc21)c1cc(F)cc(C2CC2)c1", "note": "[Compound I-569a, (S)-3-Cyclopropyl-5-fluoro-N-(2-(2-(trifluoromethyl)pyridin-4-yl)-5,6-dihydro-4H-pyrrolo[1,2-b]pyrazol-4-yl)benzamide]", "values": [{"measurement": "IC50", "value": "< 250", "unit": "nM"}]}
{"molecule": "CC(C)(O)c1cc(F)cc(C(=O)N[C@H]2CCn3nc(-c4ccnc(C(F)(F)F)c4)cc32)c1", "note": "[Compound I-570a, (S)-3-Fluoro-5-(2-hydroxypropan-2-yl)-N-(2-(2-(trifluoromethyl)pyridin-4-yl)-5,6-dihydro-4H-pyrrolo[1,2-b]pyrazol-4-yl)benzamide]", "values": [{"measurement": "IC50", "value": "< 250", "unit": "nM"}]}
{"molecule": "O=C(N[C@H]1CCn2nc(-c3ccnc(C(F)(F)F)c3)cc21)c1cnc(C(F)(F)F)cn1", "note": "[Compound I-571a, (S)-5-(Trifluoromethyl)-N-(2-(2-(trifluoromethyl)pyridin-4-yl)-5,6-dihydro-4H-pyrrolo[1,2-b]pyrazol-4-yl)pyrazine-2-carboxamide]", "values": [{"measurement": "IC50", "value": "< 250", "unit": "nM"}]}
{"molecule": "O=C(N[C@H]1CCn2nc(-c3ccnc(C(F)(F)F)c3)cc21)c1cnn(C(F)(F)F)c1", "note": "[Compound I-573a, (S)-1-(Trifluoromethyl)-N-(2-(2-(trifluoromethyl)pyridin-4-yl)-5,6-dihydro-4H-pyrrolo[1,2-b]pyrazol-4-yl)-1H-pyrazole-4-carboxamide]", "values": [{"measurement": "IC50", "value": "< 250", "unit": "nM"}]}
{"molecule": "CCOc1cc(F)cc(C(=O)N[C@H]2CCn3nc(-c4cc(OC)ncc4F)cc32)c1", "note": "[Compound I-574a, (S)-3-Ethoxy-5-fluoro-N-(2-(5-fluoro-2-methoxypyridin-4-yl)-5,6-dihydro-4H-pyrrolo[1,2-b]pyrazol-4-yl)benzamide]", "values": [{"measurement": "IC50", "value": "< 250", "unit": "nM"}]}
{"molecule": "COc1cc(-c2cc3n(n2)CC[C@@H]3NC(=O)c2cnc(C(F)(F)F)cn2)c(F)cn1", "note": "[Compound I-575a, (S)-N-(2-(5-Fluoro-2-methoxypyridin-4-yl)-5,6-dihydro-4H-pyrrolo[1,2-b]pyrazol-4-yl)-5-(trifluoromethyl)pyrazine-2-carboxamide]", "values": [{"measurement": "IC50", "value": "< 250", "unit": "nM"}]}
{"molecule": "COc1cc(-c2cc3n(n2)CC[C@@H]3NC(=O)c2cncc(C(F)(F)F)n2)c(F)cn1", "note": "[Compound I-576a, (S)-N-(2-(5-Fluoro-2-methoxypyridin-4-yl)-5,6-dihydro-4H-pyrrolo[1,2-b]pyrazol-4-yl)-6-(trifluoromethyl)pyrazine-2-carboxamide]", "values": [{"measurement": "IC50", "value": "< 250", "unit": "nM"}]}
{"molecule": "COc1cc(-c2cc3n(n2)CC[C@@H]3NC(=O)c2cnn(C(F)(F)F)c2)c(F)cn1", "note": "[Compound I-577a, (S)-N-(2-(5-Fluoro-2-methoxypyridin-4-yl)-5,6-dihydro-4H-pyrrolo[1,2-b]pyrazol-4-yl)-1-(trifluoromethyl)-1H-pyrazole-4-carboxamide]", "values": [{"measurement": "IC50", "value": "< 250", "unit": "nM"}]}
{"molecule": "COc1cc(F)cc(C(=O)N[C@H]2CCCn3nc(-c4ccnc(C(F)(F)F)c4)cc32)c1", "note": "[Compound I-578a, (S)-3-Fluoro-5-methoxy-N-(2-(2-(trifluoromethyl)pyridin-4-yl)-4,5,6,7-tetrahydropyrazolo[1,5-a]pyridin-4-yl)benzamide]", "values": [{"measurement": "IC50", "value": "< 250", "unit": "nM"}]}
{"molecule": "CCOc1cc(F)cc(C(=O)N[C@H]2CCCn3nc(-c4ccnc(C(F)(F)F)c4)cc32)c1", "note": "[Compound I-579a]", "values": [{"measurement": "IC50", "value": "< 250", "unit": "nM"}]}
{"molecule": "O=C(N[C@H]1CCCn2nc(-c3ccnc(C(F)(F)F)c3)cc21)c1cc(F)cc(C2CC2)c1", "note": "[Compound I-580a, (S)-3-Cyclopropyl-5-fluoro-N-(2-(2-(trifluoromethyl)pyridin-4-yl)-4,5,6,7-tetrahydropyrazolo[1,5-a]pyridin-4-yl)benzamide]", "values": [{"measurement": "IC50", "value": "< 250", "unit": "nM"}]}
{"molecule": "CC(C)(O)c1cc(F)cc(C(=O)N[C@H]2CCCn3nc(-c4ccnc(C(F)(F)F)c4)cc32)c1", "note": "[Compound I-581a]", "values": [{"measurement": "IC50", "value": "< 250", "unit": "nM"}]}
{"molecule": "O=C(N[C@H]1CCCn2nc(-c3ccnc(C(F)(F)F)c3)cc21)c1cnc(C(F)(F)F)cn1", "note": "[Compound I-582a, (S)-5-(Trifluoromethyl)-N-(2-(2-(trifluoromethyl)pyridin-4-yl)-4,5,6,7-tetrahydropyrazolo[1,5-a]pyridin-4-yl)pyrazine-2-carboxamide]", "values": [{"measurement": "IC50", "value": "< 250", "unit": "nM"}]}
{"molecule": "O=C(N[C@H]1CCn2nc(-c3ccnc(C(F)(F)F)c3)cc21)C12CC(CC(F)(F)F)(C1)C2", "note": "[Compound I-583a, (S)-3-(2,2,2-Trifluoroethyl)-N-(2-(2-(trifluoromethyl)pyridin-4-yl)-5,6-dihydro-4H-pyrrolo[1,2-b]pyrazol-4-yl)bicyclo[1.1.1]pentane-1-carboxamide]", "values": [{"measurement": "IC50", "value": "< 250", "unit": "nM"}]}
{"molecule": "O=C(N[C@H]1CCn2nc(-c3ccnc(C4CC4)c3)cc21)C12CC(CC(F)(F)F)(C1)C2", "note": "[Compound I-584a, (S)-N-(2-(2-Cyclopropylpyridin-4-yl)-5,6-dihydro-4H-pyrrolo[1,2-b]pyrazol-4-yl)-3-(2,2,2-trifluoroethyl)bicyclo[1.1.1]pentane-1-carboxamide]", "values": [{"measurement": "IC50", "value": "< 250", "unit": "nM"}]}
{"molecule": "O=C(N[C@H]1CCn2nc(-c3ccnc(C(F)(F)F)c3)cc21)[C@@H]1C[C@@H]1C(F)(F)F", "note": "[I-487^, (1R,2S)-2-(trifluoromethyl)-N—((S)-2-(2-(trifluoromethyl)pyridin-4-yl)-5,6-dihydro-4H-pyrrolo[1,2-b]pyrazol-4-yl)cyclopropane-1-carboxamide]", "values": [{"measurement": "IC50", "value": "< 250", "unit": "nM"}]}
{"molecule": "O=C(N[C@H]1CCn2nc(-c3ccnc(C(F)(F)F)c3)cc21)[C@@H]1C[C@H]1C(F)(F)F", "note": "[I-488^, (1R,2R)-2-(trifluoromethyl)-N—((S)-2-(2-(trifluoromethyl)pyridin-4-yl)-5,6-dihydro-4H-pyrrolo[1,2-b]pyrazol-4-yl)cyclopropane-1-carboxamide]", "values": [{"measurement": "IC50", "value": "< 250", "unit": "nM"}]}
{"molecule": "(S)-3-Chloro-5-methyl-N-(2-(2-(trifluoromethyl)pyridin-4-yl)-2,4,5,6-tetrahydrocyclopenta[c]pyrazol-4-yl)benzamide [Compound I-129a]", "values": [{"measurement": "IC50", "value": "< 250", "unit": "nM"}]}
{"molecule": "(S)-6-(Trifluoromethyl)-N-(2-(2-(trifluoromethyl)pyridin-4-yl)-5,6-dihydro-4H-pyrrolo[1,2-b]pyrazol-4-yl)pyrazine-2-carboxamide [Compound I-572a]", "values": [{"measurement": "IC50", "value": "< 250", "unit": "nM"}]}
